Data reported in US20120245137A1 (Zalicus Pharmaceuticals Ltd., priority 2009, published 2012).

How the values were obtained:
[1] = biological target: N-type calcium channel subunits (α1B, α2δ, and β3a) (Homo sapiens, UniProt Q00975); test: Block of Cav2.2 channel, whole cell voltage clamp, manual and PatchXpress; assay type: cell-based; conditions: Table 5; table follows Assay Example 3 (whole cell voltage clamp / PatchXpress); assay not given
Summary of the method: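 Percent block taken as current amplitude ratio with versus without compound, applied in rising doses; IC50 fitted where one cell received multiple doses. Protocol: 50 ms pulses to +20 mV at 0.067 Hz from […] or −90 mV holding; P/n leak subtraction, no junction-potential correction; manual and PatchXpress recordings.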

[2] = biological target: human α1G T-type channels (Homo sapiens, UniProt O43497); test: T-type calcium channel block, whole cell patch clamp, α1G; assay type: cell-based; conditions: HEK cells stably expressing human α1G; mainly non-inactivated protocol; values above 10,000 nM represented as 10000
Summary of the method: (§1)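 Cells are stable HEK 293 lines carrying human α1G or α1H channels, patched in whole-cell mode. Resting block comes from the non-inactivated pre-pulse; voltage-dependent block from the inactivated protocol.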

mice = conditions: mouse, in vivo
Experimental: In mice, the rotarod procedure (Dunham and Miya, J. Am. Pharmacol. Assoc. 46:208-209 (1957)) is used to disclose minimal muscular or neurological impairment (MMI). When a mouse is placed on a rod that rotates at a speed of 6 rpm, the animal can maintain its equilibrium for long periods of time. The animal is considered toxic if it falls off this rotating rod three times during a 1-min period.

male CF1 mice = test: 6 Hz psychomotor seizure model of partial epilepsy; assay type: in vivo; set-up: concentration or dose not given beside the values; conditions: 6 Hz 32 mA corneal stimulus
Excerpt: Compounds can also be evaluated for the protection against seizures induced by a 6 Hz, 0.2 ms rectangular pulse width of 3 s duration, at a stimulus intensity of 32 mA (CC97) applied to the cornea of male CF1 mice (20-30 g) according to procedures described by Barton et al, “Pharmacological Characterization of the 6 Hz Psychomotor Seizure Model of Partial Epilepsy,” Epilepsy Res. 47(3):217-27 (2001). Seizures are characterised by the expression of one or more of the following behaviours: stun, forelimb clonus, twitching of the vibrissae and Straub-tail immediately following electrical stimulation.

[3] = biological target: human α1H T-type channels (Homo sapiens, UniProt O95180); test: T-type calcium channel block, whole cell patch clamp, α1H; assay type: cell-based; conditions: HEK cells stably expressing human α1H; mainly non-inactivated protocol; values above 10,000 nM represented as 10000
Summary of the method: as §1

T-type calcium channel = test: T-type channel blocking activity as summarised in text (subunit not stated); assay type: cell-based, human; conditions: Table 4
Experimental: T-type calcium channel blocking activity was assayed in human embryonic kidneycells, HEK 293 (Invitrogen), stably transfected with the T-type calcium channel subunits. Briefly, cells were cultured in Dulbecco's modified eagle medium (DMEM) supplemented with 10% fetal bovine serum, 200 U/ml penicillin, and 0.2 mg/mL streptomycin at 37° C. with 5% CO2. At 85% confluency, cells were split with 0.25% trypsin/1 mM EDTA and plated at 10% confluency on glass coverslips. At 12 hours, the medium was replaced, and the cells stably transfected using a standard calcium phosphate protocol and the appropriate calcium channel cDNA's. Fresh DMEM was supplied, and the cells transferred to 28° C./5% CO2. Cells were incubated for 1 to 2 days prior to whole cell recording.
Standard patch-clamp techniques were employed to identify blockers of T-type currents. Briefly, previously described HEK cell lines stably expressing human α1G, α1H, and α1I T-type channels were used for all the recordings (passage #: 4-20, 37° C., 5% CO2). Whole cell patch clamp experiments were performed using an Axopatch 200B amplifier (Axon Instruments, Burlingame, Calif.) linked to a personal computer equipped with pCLAMP software. Data were analyzed using Clampfit (Axon Instruments) and SigmaPlot 4.0 (Jandel Scientific). […]

N-type calcium channel subunits (α1B, α2δ, and β3a), sequence (Q00975 whole entry): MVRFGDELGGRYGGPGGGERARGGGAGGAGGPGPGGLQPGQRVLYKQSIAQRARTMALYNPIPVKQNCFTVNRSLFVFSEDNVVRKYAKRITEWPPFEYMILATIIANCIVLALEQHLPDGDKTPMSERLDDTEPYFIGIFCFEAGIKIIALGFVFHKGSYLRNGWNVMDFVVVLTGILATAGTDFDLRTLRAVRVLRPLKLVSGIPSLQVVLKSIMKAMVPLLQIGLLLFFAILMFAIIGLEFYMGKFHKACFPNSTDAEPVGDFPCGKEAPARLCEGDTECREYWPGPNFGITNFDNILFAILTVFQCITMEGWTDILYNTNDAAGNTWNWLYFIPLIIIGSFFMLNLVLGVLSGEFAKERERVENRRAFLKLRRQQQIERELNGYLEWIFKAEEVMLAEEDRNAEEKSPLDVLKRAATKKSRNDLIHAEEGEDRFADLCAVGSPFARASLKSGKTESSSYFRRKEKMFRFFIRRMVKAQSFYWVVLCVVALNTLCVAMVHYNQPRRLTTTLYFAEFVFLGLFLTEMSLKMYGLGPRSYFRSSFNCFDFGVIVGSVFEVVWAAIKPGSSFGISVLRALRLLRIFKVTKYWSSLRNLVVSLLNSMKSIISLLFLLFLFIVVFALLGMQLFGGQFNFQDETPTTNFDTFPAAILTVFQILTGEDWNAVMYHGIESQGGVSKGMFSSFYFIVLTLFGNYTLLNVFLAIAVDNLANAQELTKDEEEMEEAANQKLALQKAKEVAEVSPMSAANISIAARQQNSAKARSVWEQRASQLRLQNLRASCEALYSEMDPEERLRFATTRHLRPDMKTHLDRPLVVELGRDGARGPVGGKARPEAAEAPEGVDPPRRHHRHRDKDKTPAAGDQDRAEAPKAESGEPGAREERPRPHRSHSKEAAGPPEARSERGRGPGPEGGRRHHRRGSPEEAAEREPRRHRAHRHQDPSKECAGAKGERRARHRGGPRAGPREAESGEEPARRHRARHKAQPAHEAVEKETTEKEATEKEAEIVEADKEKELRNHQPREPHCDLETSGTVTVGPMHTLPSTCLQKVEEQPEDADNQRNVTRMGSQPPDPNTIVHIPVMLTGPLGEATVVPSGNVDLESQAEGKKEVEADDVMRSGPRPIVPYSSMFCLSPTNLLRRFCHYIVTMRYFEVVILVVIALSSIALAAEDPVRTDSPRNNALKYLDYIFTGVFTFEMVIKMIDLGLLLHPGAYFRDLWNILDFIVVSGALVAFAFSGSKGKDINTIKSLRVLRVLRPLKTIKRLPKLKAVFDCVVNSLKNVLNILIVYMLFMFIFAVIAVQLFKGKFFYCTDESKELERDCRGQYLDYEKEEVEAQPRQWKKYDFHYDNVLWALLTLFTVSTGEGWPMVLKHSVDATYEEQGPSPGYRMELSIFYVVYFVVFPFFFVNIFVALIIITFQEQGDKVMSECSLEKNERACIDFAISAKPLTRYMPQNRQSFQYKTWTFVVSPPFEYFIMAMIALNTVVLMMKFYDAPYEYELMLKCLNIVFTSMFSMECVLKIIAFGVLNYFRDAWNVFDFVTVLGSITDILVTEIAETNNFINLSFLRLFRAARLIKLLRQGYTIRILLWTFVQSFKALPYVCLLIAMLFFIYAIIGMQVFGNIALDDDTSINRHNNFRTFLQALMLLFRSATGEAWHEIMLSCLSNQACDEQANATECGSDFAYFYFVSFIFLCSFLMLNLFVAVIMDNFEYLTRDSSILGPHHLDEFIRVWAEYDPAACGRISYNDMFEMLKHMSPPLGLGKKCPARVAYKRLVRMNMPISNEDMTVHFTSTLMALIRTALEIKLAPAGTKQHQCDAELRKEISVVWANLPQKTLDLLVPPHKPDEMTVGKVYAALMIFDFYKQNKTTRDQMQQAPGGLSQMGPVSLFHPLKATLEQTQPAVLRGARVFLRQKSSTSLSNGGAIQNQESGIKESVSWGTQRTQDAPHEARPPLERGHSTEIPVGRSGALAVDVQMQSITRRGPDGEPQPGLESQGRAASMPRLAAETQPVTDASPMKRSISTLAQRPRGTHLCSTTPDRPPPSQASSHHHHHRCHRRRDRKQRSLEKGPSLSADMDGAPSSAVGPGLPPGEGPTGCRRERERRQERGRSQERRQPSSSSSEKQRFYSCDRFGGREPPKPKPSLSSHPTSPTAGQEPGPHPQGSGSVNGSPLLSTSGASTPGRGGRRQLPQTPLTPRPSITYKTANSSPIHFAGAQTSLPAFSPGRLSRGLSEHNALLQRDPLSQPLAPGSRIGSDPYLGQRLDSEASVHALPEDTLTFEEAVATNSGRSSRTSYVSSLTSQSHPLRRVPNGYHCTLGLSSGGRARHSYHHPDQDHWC
N-type calcium channel subunits (α1B, α2δ, and β3a), sequence (P54289 25-1103 partner): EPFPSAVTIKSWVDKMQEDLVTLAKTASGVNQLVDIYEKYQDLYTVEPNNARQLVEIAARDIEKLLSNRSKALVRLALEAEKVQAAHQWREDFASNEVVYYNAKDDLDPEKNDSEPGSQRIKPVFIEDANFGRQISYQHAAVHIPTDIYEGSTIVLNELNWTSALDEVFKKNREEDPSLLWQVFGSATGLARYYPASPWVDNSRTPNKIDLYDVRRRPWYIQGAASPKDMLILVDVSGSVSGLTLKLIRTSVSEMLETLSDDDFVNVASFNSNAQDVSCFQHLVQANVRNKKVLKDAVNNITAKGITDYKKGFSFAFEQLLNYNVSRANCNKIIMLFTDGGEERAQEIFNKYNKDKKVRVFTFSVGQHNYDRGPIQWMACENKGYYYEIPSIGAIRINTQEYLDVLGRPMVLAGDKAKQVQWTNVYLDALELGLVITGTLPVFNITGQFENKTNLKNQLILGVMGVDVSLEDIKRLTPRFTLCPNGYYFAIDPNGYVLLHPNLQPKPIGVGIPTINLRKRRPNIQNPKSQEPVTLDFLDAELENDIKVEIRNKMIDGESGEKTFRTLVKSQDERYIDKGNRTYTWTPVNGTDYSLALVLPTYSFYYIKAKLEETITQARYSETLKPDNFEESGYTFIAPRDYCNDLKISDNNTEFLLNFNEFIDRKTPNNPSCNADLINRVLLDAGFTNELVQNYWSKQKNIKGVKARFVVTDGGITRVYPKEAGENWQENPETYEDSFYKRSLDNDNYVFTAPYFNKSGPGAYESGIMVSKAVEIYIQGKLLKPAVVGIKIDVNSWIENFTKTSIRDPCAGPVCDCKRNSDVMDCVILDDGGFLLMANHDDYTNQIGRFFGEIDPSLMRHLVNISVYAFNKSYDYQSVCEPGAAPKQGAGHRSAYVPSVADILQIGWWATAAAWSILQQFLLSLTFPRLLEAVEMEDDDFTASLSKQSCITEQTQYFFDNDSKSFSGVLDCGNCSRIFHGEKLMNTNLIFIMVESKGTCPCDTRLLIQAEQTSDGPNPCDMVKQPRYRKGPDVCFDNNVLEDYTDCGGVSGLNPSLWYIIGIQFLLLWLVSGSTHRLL
N-type calcium channel subunits (α1B, α2δ, and β3a), sequence (P54284 whole entry partner): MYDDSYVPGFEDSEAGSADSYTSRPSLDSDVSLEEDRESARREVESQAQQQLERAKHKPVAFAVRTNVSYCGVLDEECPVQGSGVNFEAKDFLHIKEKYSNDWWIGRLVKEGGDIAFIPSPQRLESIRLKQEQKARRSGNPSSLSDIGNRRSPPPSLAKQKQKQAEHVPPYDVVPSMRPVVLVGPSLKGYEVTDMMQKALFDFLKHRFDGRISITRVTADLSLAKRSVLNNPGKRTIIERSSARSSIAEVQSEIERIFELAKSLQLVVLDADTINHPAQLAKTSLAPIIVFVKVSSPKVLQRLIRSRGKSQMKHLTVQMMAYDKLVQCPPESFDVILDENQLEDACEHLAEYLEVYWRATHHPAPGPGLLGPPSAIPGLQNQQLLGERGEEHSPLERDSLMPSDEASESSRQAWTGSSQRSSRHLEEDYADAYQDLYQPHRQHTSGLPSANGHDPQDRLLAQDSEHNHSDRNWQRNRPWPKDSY

Row | IC50 [2] [nM] | IC50 [3] [nM] | activity (IC50), T-type channel block (T-type calcium channel) | Structure (SMILES) | IC50 [1] [nM] | EPILEPSY ROTAROD (% IMPAIRED) 0.25 hr (mice) [%] | EPILEPSY ROTAROD (% IMPAIRED) 0.5 hr (mice) [%] | EPILEPSY ROTAROD (% IMPAIRED) 1 hr (mice) [%] | EPILEPSY ROTAROD (% IMPAIRED) 2 hr (mice) [%] | EPILEPSY ROTAROD (% IMPAIRED) 4 hr (mice) [%] | Epilepsy 6 Hz (% protected) 0.25 hr (male CF1 mice) [%] | Epilepsy 6 Hz (% protected) 0.5 hr (male CF1 mice) [%] | Epilepsy 6 Hz (% protected) 1 hr (male CF1 mice) [%] | Epilepsy 6 Hz (% protected) 2 hr (male CF1 mice) [%] | Epilepsy 6 Hz (% protected) 4 hr (male CF1 mice) [%]
1 | 9510 | 3170 |  | CS(=O)(=O)c1cc(C(F)(F)F)ccc1C(=O)NCC1CC(S(=O)(=O)c2cccc(C(F)(F)F)c2)C1 [Compound 356, 2-(methylsulfonyl)-4-(trifluoromethyl)-N-(((1R,3R)-3-(3-(trifluoromethyl)phenylsulfonyl)cyclobutyl)methyl)benzamide] | 570 | 0 | 0 | 0 | 0 | 0 | 25 | 0 | 0 | 0 | 0
2 | 9130 | 8090 | lowest IC50 | COc1cc(F)cc(C(=O)N[C@H]2CC[C@H](S(=O)(=O)c3cccc(C(F)(F)F)c3)CC2)c1 [Compound 59, 3-fluoro-5-methoxy-N-((1R,4R)-4-(3-(trifluoromethyl)phenylsulfonyl)cyclohexyl)benzamide] | 440 |  |  |  |  |  |  |  |  |  | 
3 |  |  |  | CC(C)(C1CC(NC(=O)c2cn3cc(C(F)(F)F)ccc3n2)C1)S(=O)(=O)c1cccc(C(F)(F)F)c1 [Compound 438, 6-(trifluoromethyl)-N-((1R,3R)-3-(2-(3-(trifluoromethyl)phenylsulfonyl)propan-2-yl)cyclobutyl)imidazo[1,2-a]pyridine-2-carboxamide] | 400 | 0 | 0 | 0 | 0 | 0 | 75 | 0 | 0 | 25 | 0

Row | Structure (SMILES) | IC50 [2] [nM] | IC50 [3] [nM] | activity (IC50), T-type channel block (T-type calcium channel) | IC50 [1] [nM] | EPILEPSY ROTAROD (% IMPAIRED) 0.25 hr (mice) [%] | EPILEPSY ROTAROD (% IMPAIRED) 0.5 hr (mice) [%] | EPILEPSY ROTAROD (% IMPAIRED) 1 hr (mice) [%] | EPILEPSY ROTAROD (% IMPAIRED) 2 hr (mice) [%] | EPILEPSY ROTAROD (% IMPAIRED) 4 hr (mice) [%] | Epilepsy 6 Hz (% protected) 0.25 hr (male CF1 mice) [%] | Epilepsy 6 Hz (% protected) 0.5 hr (male CF1 mice) [%] | Epilepsy 6 Hz (% protected) 1 hr (male CF1 mice) [%] | Epilepsy 6 Hz (% protected) 2 hr (male CF1 mice) [%] | Epilepsy 6 Hz (% protected) 4 hr (male CF1 mice) [%]
4 | O=C(NCC1(O)CCC(S(=O)(=O)c2cccc(C(F)(F)F)c2)CC1)c1ccc(F)c(Cl)c1 [Compound 230, 3-chloro-4-fluoro-N-(((1S,4S)-1-hydroxy-4-(3-(trifluoromethyl)phenylsulfonyl)cyclohexyl)methyl)benzamide] | 1180 |  |  | 790 | 0 | 0 | 0 | 0 | 0 | 0 | 25 | 25 | 100 | 0
